The values below come from ChEMBL document CHEMBL6134767, “Advances in antibacterial agents for Mycobacterium fortuitum” (2025).

Structures are written as SMILES. ≈ marks a conversion by molar mass, not a printed value.

The first test deals with Mycolicibacterium fortuitum. The experiment in a line: Antimycobacterial activity against Mycobacterium fortuitum ATCC 19542 assessed as bacterial growth inhibition incubated for 72 hrs by resazurin dye based broth microdilution method. Format: functional.
Conditions: not given
(In general: Resazurin is reduced to fluorescent resorufin, in cell work by metabolically active cells.)
As for `C#CCNC(=O)C1=CC(c2cc(Br)ccc2F)N2N=CNC2=N1` (stereo not drawn), the minimum inhibitory concentration (MIC) amounted to 2.65 µM (≈ 0.997 µg/mL).

`CC(NC(=O)C1=CC(c2cc(Br)ccc2F)N2N=CNC2=N1)c1ccccc1` (stereo not drawn): the minimum inhibitory concentration (MIC) is 2.26 µM (≈ 1 µg/mL).

As for `CCN(C(=O)C1=CC(c2cc(Br)ccc2F)N2N=CNC2=N1)c1ccccc1` (stereo not drawn), the MIC was determined as 2.26 µM (≈ 1 µg/mL).

Another test deals with Mycolicibacterium fortuitum. The experiment in a line: Antimycobacterial activity against Mycobacterium fortuitum PCM 672 assessed as reduction in microbial growth incubated for 72 hrs by resazurin dye based broth microdilution method. Format: functional.
Conditions: not given
With `Cc1noc(N)c1C(=O)N/N=C/c1ccc(C(F)(F)F)cc1`, the MIC is 0.21 µM.

Regarding `Cc1noc(N)c1C(=O)N/N=C/c1ccc([N+](=O)[O-])cc1`, the MIC came to 51.1 µM.

Turning to `Cc1noc(N)c1C(=O)N/N=C/c1ccncc1`, the MIC was found to be 0.14 µM.

Turning to `Cc1noc(N)c1C(=O)N/N=C/c1ccc(Cl)c(Cl)c1`, the minimal inhibitory concentration (MIC) was 0.21 µM.

Turning to `COc1ccc(/C=N/NC(=O)c2c(C)noc2N)cc1`, the MIC was 0.24 µM.

With `Cc1noc(N)c1C(=O)N/N=C/c1ccc(Cl)cc1Cl`, the MIC was determined as 55.3 µM.

For the next test, the system named is Mycolicibacterium fortuitum. The experiment in a line: Antibacterial activity against Mycobacterium fortuitum ATCC 49404 assessed as bacterial growth inhibition incubated for 72 hrs by CLSI protocol based micro-dilution method. It counts as functional.
Conditions: not given
On the technique in general: Broth dilution looks for growth in wells or tubes with falling amounts of substance.
`NCC[C@H](O)C(=O)N[C@@H]1C[C@H](N)[C@@H](O[C@H]2O[C@H](CN)[C@@H](O)[C@H](O)[C@H]2O)[C@H](O)[C@H]1O[C@H]1O[C@H](CO)[C@@H](O)[C@H](N)[C@H]1O` [AMIKACIN]: the MIC was 5.33 µM (≈ 3.12 µg/mL).

Another test deals with Mycolicibacterium fortuitum. The experiment in a line: Antibacterial activity against Mycobacterium fortuitum ATCC 6841 assessed as bacterial growth inhibition incubated for 72 hrs by CLSI protocol based micro-dilution method. Format: functional.
Conditions: not given
As for `CC(=O)NC[C@H]1CN(c2ccc(N3CCOCC3)c(F)c2)C(=O)O1` [LINEZOLID], the minimal inhibitory concentration (MIC) was determined as 23.7 µM (≈ 8 µg/mL).

Regarding `NCC[C@H](O)C(=O)N[C@@H]1C[C@H](N)[C@@H](O[C@H]2O[C@H](CN)[C@@H](O)[C@H](O)[C@H]2O)[C@H](O)[C@H]1O[C@H]1O[C@H](CO)[C@@H](O)[C@H](N)[C@H]1O` [AMIKACIN], the MIC stood at 3.41 µM (≈ 2 µg/mL).

For the compound `CC[C@H]1OC(=O)[C@H](C)[C@@H](O[C@H]2C[C@@](C)(OC)[C@@H](O)[C@H](C)O2)[C@H](C)[C@@H](O[C@@H]2O[C@H](C)C[C@H](N(C)C)[C@H]2O)[C@](C)(OC)C[C@@H](C)C(=O)[C@H](C)[C@@H](O)[C@]1(C)O` [CLARITHROMYCIN], the MIC worked out at 1.34 µM (≈ 1 µg/mL).

For `C[C@H]1c2cccc(O)c2C(=O)C2=C(O)[C@]3(O)C(=O)C(C(N)=O)=C(O)[C@@H](N(C)C)[C@@H]3[C@@H](O)[C@@H]21` [DOXYCYCLINE ANHYDROUS], the minimum inhibitory concentration (MIC) was found to be 0.56 µM (≈ 0.249 µg/mL).

As for `Cc1cc(NS(=O)(=O)c2ccc(N)cc2)no1` [SULFAMETHOXAZOLE], the minimal inhibitory concentration (MIC) came to 126 µM (≈ 32 µg/mL).

As to `CC(C)/N=c1\cc2n(-c3ccc(Cl)cc3)c3ccccc3nc-2cc1Nc1ccc(Cl)cc1` [CLOFAZIMINE], the MIC worked out at 4.22 µM (≈ 2 µg/mL).

Another test deals with Mycolicibacterium fortuitum. The experiment in a line: Antimycobacterial activity against Mycobacterium fortuitum ATCC 6841 assessed as reduction in microbial growth. Format: functional.
Conditions: not given
As for `O=c1cc(-c2ccc(O)c(O)c2)oc2cc(O)cc(O)c12` [LUTEOLIN], the MIC is 0.12 µM.

As for `O=c1cc(-c2ccc(O)cc2)oc2c([C@@H]3O[C@H](CO)[C@@H](O)[C@H](O)[C@H]3O)c(O)cc(O)c12`, the minimal inhibitory concentration (MIC) stood at 69.4 µM.

The next test relates to Mycolicibacterium fortuitum. The test is described as follows: Antibacterial activity against Mycobacterium fortuitum ATCC 6841 assessed as bacterial growth inhibition incubated for 4 days by CLSI protocol based broth micro-dilution method. The conditions noted are these: ATCC 6841, 96 h, time 4 day. Format: functional.
`CC1(C)CCC(Cc2cc(O)c(-c3ccccc3)c(=O)[nH]2)CC1`: the MIC came out at 0.13 µM (≈ 0.0405 µg/mL).

The subject of a further test is Mycolicibacterium fortuitum. The test is described as follows: Antibacterial activity against Mycobacterium fortuitum assessed as reduction in bacterial growth. It counts as functional.
Conditions: not given
As to `CC(C)=CCC/C(C)=C/CNCCNC1C2CC3CC(C2)CC1C3` (stereo not drawn) [SQ109], the minimum inhibitory concentration (MIC) came out at 3.02 µM (≈ 0.998 µg/mL).

As to `CC(C)/C(=C/CN(C)C)CC[C@@H](C)[C@H]1CC[C@H]2C3=CC[C@H]4C[C@@H](N(C)C)CC[C@]4(C)[C@H]3CC[C@]12C`, the minimal inhibitory concentration (MIC) worked out at 67.2 µM (≈ 32.5 µg/mL).

On to `C[C@]12CC[C@@H]3c4ccc(OCCCCCCC[n+]5ccccc5)cc4CC[C@H]3[C@@H]1CCC2=O`, for which the minimal inhibitory concentration (MIC) came out at 3.81 µM.

In the next test the test system is Mycolicibacterium fortuitum. The test is described as follows: Antibacterial activity against Mycobacterium fortuitum ATCC 6841 assessed as reduction in bacterial growth by micro-dilution method. It counts as functional.
Conditions: not given
Take `C=C1[C@@H](C)CC[C@@]2(C)[C@H]1CC=C(C=O)[C@]2(O)C=O`: the minimal inhibitory concentration (MIC) came to 64.4 µM (≈ 16 µg/mL).

Regarding `C=C1[C@H]2CC[C@@H]3[C@H]2C(C)(C)CCC[C@]13C` [LONGIFORENE], the MIC is > 0.63 µM.

Take `Cc1cc(O)c([C@]2(C)CC[C@@H]3C[C@@]32C)cc1Br`: the MIC was 42.3 µM (≈ 12.5 µg/mL).

Regarding `CC(C)c1c(O)ccc2c1CC[C@H]1C(C)(C)CCC[C@]21C` [TOTAROL], the minimum inhibitory concentration (MIC) was 14 µM (≈ 4.01 µg/mL).

On to `C=C[C@@](C)(O)CC/C=C(/C)CCC=C(C)C` [NEROLIDIOL], for which the MIC came out at 44.5 µM (≈ 9.9 µg/mL).

For the compound `C=C1C[C@@]23CC[C@H]4[C@@](C)(CCC[C@@]4(C)C=O)[C@@H]2CC[C@@H]1C3`, the MIC worked out at 51.6 µM (≈ 14.8 µg/mL).

In the next test the test system is Mycolicibacterium fortuitum. The experiment in a line: Antibacterial activity against Mycobacterium fortuitum ATCC 6841 assessed as reduction in bacterial growth incubated for 72 hrs by Mueller-Hinton broth micro-dilution based assay. It counts as functional.
Conditions: not given
Regarding `C[C@@H](N)CCCCCC/C=C\CCCCCCCCN`, the minimum inhibitory concentration (MIC) was 44 µM (≈ 12.4 µg/mL).

For `CCCCCCCC/C=C\CCCCCCCC(=O)O` [OLEIC ACID], the minimum inhibitory concentration (MIC) was 56.6 µM (≈ 16 µg/mL).

Consider `C=C[C@@H](O)C#CC#C[C@@H](O)/C=C\CCCCCCC` [FALCARINDIOL], for which the minimum inhibitory concentration (MIC) stood at 30.4 µM (≈ 7.92 µg/mL).

In the case of `C=C[C@H](O)C#CC#CC/C=C\CCCCCCC` [FALCARINOL], the MIC is 16.4 µM (≈ 4 µg/mL).

For `CCCCCCCCCCC/C=C\C=C\C(O)CC(=O)O` (stereo not drawn), the minimum inhibitory concentration (MIC) worked out at 0.11 µM (≈ 0.0326 µg/mL).

A word on the MIC: it is the smallest concentration in the dilution series that meets the test's criterion for growth inhibition.
